In patent US20080292584A1 (priority 2005, published 2008):
Where “and” joins values, the source holds several entries; their conditions need not be identical. Equal values may be shown once.

Columns and labels:
CYP2E1 = CYP2E1 (Homo sapiens, UniProt P05181); experiment: Metabolism of metaxalone by expressed recombinant human CYP2E1 (Example 1); conditions: 30 min
Procedure: (§1) Commercially available microsomes from baculovirus-infected insect cells containing singly-expressed recombinant wild-type (*1 allele) human CYP enzymes and cDNA-expressed human cytochrome p450 oxidoreductase [BD SUPERSOMES Enzymes; BD Biosciences Discovery Labware (Woburn, Mass.)] were used.
(§2) After a 5-minute pre-incubation, an NADPH regenerating system (NRS) was added to the incubation mixtures to initiate reactions, with a final incubation volume of 0.5 mL. Incubations were continued for 30 minutes, and then terminated, except for those for CYP2C19, which were incubated for 36 minutes prior to termination.
(§3) Matrix controls were performed to determine the background signal from the matrix components (microsomes (10 pmol p450), 01N Tris buffer, NRS, and 1% methanol). […] After a 5-minute pre-incubation, 2% sodium bicarbonate solution was added to the incubation mixtures. Incubation was for 30 minutes at a final volume of 0.5 mL. Matrix and metabolic negative controls were terminated by adding an equal volume of methanol. […] Analysis of samples was subsequent to storage at −70° C.

CYP2C19 = CYP2C19 (Homo sapiens, UniProt P33261); experiment: Chemical inhibition of metaxalone turnover in human liver microsomes, CYP2C19 inhibitor ticlopidine; conditions: 1 mg/mL HLM, 60 min, with ticlopidine; for % Turnover / % inhibition of turnover / Conc.: single replicates
Sequence of CYP2C19 (P33261 whole entry): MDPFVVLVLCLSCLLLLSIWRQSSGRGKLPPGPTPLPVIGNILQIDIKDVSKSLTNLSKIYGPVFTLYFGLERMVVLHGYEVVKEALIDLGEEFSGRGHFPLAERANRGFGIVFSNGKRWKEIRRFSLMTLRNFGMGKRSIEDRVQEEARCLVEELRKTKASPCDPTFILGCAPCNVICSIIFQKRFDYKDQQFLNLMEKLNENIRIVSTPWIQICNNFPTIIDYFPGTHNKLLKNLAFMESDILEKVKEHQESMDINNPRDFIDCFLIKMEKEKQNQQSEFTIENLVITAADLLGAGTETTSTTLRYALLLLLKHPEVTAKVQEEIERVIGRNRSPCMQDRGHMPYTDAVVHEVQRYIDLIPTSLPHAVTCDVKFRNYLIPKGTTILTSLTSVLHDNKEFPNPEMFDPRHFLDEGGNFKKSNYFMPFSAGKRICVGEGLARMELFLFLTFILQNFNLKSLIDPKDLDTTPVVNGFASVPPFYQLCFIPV
Procedure: (§4) Human liver microsomes pooled from 15 individuals (male and female) (Pool HMMC-PL020; CellzDirect, Inc., In Vitro Products and Services Division) were used in some experiments of this study.
(§5) % Turnover=100−{[TA(final)]/[mean of TA(0 min)]}×100,
(§6) % Inhibition of Turnover=100{1−([TA(0 min)]−[TA(final-inhibitor)])/([TA(0 min)]−[TA(final-no inhibitor)])}.
(§7) The inhibitors or vehicle control were incubated with the pooled human liver microsomes (1 mg/mL) and NADPH (1 mM) in 0.1 M phosphate buffer, pH 7.4. […] Incubations were conducted in triplicate and terminated by addition of organic solvent. Samples were extracted and analyzed by LC-MS/MS as described above.

human CYP1A2 = target: T1, human CYP1A2 (Homo sapiens, UniProt P05177); experiment: Metabolism of metaxalone by expressed recombinant human CYP1A2 (disappearance of metaxalone, HPLC; Example 1); conditions: 30 min;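 note: recombinant CYP1A2 microsomes (10 pmol P450) in Tris buffer containing 1% methanol, reactions driven by an NADPH regenerating system, 0.5 mL incubations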
T1 sequence (P05177 2-516 limits assumed): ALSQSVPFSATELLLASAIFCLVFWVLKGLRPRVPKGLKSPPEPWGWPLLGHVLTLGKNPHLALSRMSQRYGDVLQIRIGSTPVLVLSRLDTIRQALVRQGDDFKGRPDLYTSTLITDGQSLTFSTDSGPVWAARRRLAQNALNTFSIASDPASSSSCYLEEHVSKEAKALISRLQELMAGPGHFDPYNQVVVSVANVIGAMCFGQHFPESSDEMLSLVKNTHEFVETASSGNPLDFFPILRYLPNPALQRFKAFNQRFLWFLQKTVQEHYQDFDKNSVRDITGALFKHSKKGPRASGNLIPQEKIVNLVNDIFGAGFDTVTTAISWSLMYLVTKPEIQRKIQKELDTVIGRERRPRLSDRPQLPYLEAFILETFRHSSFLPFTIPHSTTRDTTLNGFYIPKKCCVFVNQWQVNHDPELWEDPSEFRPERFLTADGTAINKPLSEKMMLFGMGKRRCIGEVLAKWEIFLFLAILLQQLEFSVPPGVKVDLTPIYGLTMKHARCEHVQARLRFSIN
Procedure: as §1, §2, §3

CYP2A6 [1] = experiment: Chemical inhibition of metaxalone turnover in human liver microsomes, CYP2A6 inhibitor pilocarpine; conditions: 1 mg/mL HLM, 60 min, with pilocarpine; for % Turnover / % inhibition of turnover / Conc.: single replicates
Procedure: as §4, §5, §6, §7

CYP3A4 = CYP3A4 (Homo sapiens, UniProt P08684); experiment: Metabolism of metaxalone by expressed recombinant human CYP3A4 (Example 1); conditions: 30 min;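 note: microsomes holding 10 pmol P450, reactions started by an NADPH regenerating system after 5 min preincubation, 0.5 mL final volume, background signal taken from matrix controls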
Sequence of CYP3A4 (P08684 2-503 limits assumed): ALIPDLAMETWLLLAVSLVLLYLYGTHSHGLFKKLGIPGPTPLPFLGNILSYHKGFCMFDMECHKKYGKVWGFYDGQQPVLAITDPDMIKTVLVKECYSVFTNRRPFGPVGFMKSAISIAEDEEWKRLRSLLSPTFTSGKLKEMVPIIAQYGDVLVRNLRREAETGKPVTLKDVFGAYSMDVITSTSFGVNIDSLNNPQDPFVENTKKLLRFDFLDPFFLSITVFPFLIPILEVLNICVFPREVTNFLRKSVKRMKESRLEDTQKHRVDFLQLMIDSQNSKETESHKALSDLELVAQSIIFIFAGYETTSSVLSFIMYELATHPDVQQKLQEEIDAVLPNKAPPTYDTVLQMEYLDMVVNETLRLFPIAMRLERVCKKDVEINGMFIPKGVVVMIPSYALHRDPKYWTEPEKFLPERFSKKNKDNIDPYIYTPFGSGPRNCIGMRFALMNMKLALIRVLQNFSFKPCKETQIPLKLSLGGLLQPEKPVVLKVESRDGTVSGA
Procedure: as §1, §2, §3

CYP2A6 [2] = target: T2, CYP2A6 (Homo sapiens, UniProt P11509); experiment: Metabolism of metaxalone by expressed recombinant human CYP2A6 (Example 1); conditions: 30 min;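 note: expressed P450 incubations started with NADPH regenerating system, 0.5 mL final volume, compared against metabolic negative controls, with background signal estimated from matrix controls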
T2 sequence (P11509 1-494): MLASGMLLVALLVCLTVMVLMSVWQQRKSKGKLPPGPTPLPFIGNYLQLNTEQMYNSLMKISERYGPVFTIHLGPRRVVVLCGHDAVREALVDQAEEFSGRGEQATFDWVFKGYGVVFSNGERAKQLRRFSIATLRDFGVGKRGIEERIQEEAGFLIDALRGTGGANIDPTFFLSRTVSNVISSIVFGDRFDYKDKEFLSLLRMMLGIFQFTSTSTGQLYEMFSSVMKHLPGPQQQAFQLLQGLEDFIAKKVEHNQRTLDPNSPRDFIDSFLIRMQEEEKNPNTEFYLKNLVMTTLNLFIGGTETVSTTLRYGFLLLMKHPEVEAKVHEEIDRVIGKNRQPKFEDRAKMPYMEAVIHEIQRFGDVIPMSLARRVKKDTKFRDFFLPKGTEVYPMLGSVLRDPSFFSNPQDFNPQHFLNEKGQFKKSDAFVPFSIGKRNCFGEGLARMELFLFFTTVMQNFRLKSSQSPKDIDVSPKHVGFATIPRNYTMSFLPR
Procedure: as §1, §2, §3

[3] = 400 mg oral dosage form; humans; cited from earlier work

Sequence of CYP2E1 (P05181 whole entry): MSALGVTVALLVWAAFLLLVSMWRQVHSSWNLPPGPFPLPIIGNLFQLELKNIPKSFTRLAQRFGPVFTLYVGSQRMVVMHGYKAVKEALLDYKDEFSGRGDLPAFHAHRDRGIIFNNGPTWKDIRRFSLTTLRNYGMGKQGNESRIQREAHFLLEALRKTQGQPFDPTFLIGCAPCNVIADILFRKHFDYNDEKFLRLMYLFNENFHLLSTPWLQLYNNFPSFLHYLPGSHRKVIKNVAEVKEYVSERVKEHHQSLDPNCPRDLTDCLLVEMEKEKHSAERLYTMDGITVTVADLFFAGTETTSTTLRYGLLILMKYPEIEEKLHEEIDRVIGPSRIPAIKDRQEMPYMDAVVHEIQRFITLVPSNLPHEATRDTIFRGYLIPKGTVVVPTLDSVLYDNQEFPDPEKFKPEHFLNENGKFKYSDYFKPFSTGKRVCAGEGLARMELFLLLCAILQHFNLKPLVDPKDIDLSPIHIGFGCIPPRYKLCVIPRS

SMILES: Cc1cc(C)cc(OCC2CNC(=O)O2)c1 (stereo not drawn) [metaxalone, 5-[(3,5-dimethylphenoxy)methyl]-2-oxazolidinone]
- Metaxalone Present Adjusted Individual (CYP2E1; metaxalone 0.5 μM): 0.357 µM and 0.345 µM and 0.353 µM
- Metaxalone Present Adjusted Mean ± SD (CYP2E1; metaxalone 0.5 μM): 0.352 ± 0.00648 µM
- Metaxalone Present Raw (CYP2E1; metaxalone 0.5 μM): 0.1787 µM and 0.1724 µM and 0.1766 µM
- Percent of Metabolic Negative Control Individual (CYP2E1; metaxalone 0.5 μM): 101% and 97.0% and 99.4%
- Percent of Metabolic Negative Control Mean ± SD (CYP2E1; metaxalone 0.5 μM): 99.0 ± 1.83%
- Metaxalone Present Adjusted Individual (CYP2E1; metaxalone 2.5 μM): 1.77 μM and 1.76 μM (2×)
- Metaxalone Present Adjusted Mean ± SD (CYP2E1; metaxalone 2.5 μM): 1.76 ± 0.00318 µM
- Metaxalone Present Raw (CYP2E1; metaxalone 2.5 μM): 0.883 µM and 0.8799 µM and 0.8821 µM
- Percent of Metabolic Negative Control Individual (CYP2E1; metaxalone 2.5 μM): 104%
- Percent of Metabolic Negative Control Mean ± SD (CYP2E1; metaxalone 2.5 μM): 104 ± 0.188%
- Metaxalone Present Adjusted Individual (CYP2E1; metaxalone 25 μM): 17.5 µM and 22.3 µM and 17.8 µM
- Metaxalone Present Adjusted Mean ± SD (CYP2E1; metaxalone 25 μM): 19.2 ± 2.71 µM
- Metaxalone Present Raw (CYP2E1; metaxalone 25 μM): 8.732 µM and 11.15 µM and 8.879 µM
- Percent of Metabolic Negative Control Individual (CYP2E1; metaxalone 25 μM): 98.2% and 125% and 99.9%
- Percent of Metabolic Negative Control Mean ± SD (CYP2E1; metaxalone 25 μM): 108 ± 15.3%
- % Turnover Mean (CYP2C19; 0.75 μM metaxalone): 8.16%
- % inhibition of turnover Mean (CYP2C19; 0.75 μM metaxalone): 72.6%
- Mean Conc. (CYP2C19; 0.75 μM metaxalone): 0.709 µM
- % Turnover (CYP2C19; 0.75 μM metaxalone): 9.6% and 7.5% and 7.4%
- % inhibition of turnover (CYP2C19; 0.75 μM metaxalone): 67.9% and 74.7% and 75.2%
- Conc. (CYP2C19; 0.75 μM metaxalone): 0.698 µM and 0.714 µM and 0.715 µM
- % Turnover Mean (CYP2C19; 7.5 μM metaxalone): 1.71%
- % inhibition of turnover Mean (CYP2C19; 7.5 μM metaxalone): 93.1%
- Mean Conc. (CYP2C19; 7.5 μM metaxalone): 8.37 µM
- % Turnover (CYP2C19; 7.5 μM metaxalone): 5.8% and 11.0% and −11.6%
- % inhibition of turnover (CYP2C19; 7.5 μM metaxalone): 76.5% and 55.5% and 147%
- Conc. (CYP2C19; 7.5 μM metaxalone): 8.02 µM and 7.58 µM and 9.50 µM
- Metaxalone Present Adjusted Individual (human CYP1A2; metaxalone 0.5 μM): 0.302 µM and 0.440 µM and 0.315 µM
- Metaxalone Present Adjusted Mean ± SD (human CYP1A2; metaxalone 0.5 μM): 0.352 ± 0.0761 µM
- Metaxalone Present Raw (human CYP1A2; metaxalone 0.5 μM): 0.1509 µM and 0.2198 µM and 0.1573 µM
- Percent of Metabolic Negative Control Individual (human CYP1A2; metaxalone 0.5 μM): 77.1% and 112% and 80.4%
- Percent of Metabolic Negative Control Mean ± SD (human CYP1A2; metaxalone 0.5 μM): 89.9 ± 19.4%
- Metaxalone Present Adjusted Individual (human CYP1A2; metaxalone 2.5 μM): 1.05 µM and 1.06 µM and 1.08 µM
- Metaxalone Present Adjusted Mean ± SD (human CYP1A2; metaxalone 2.5 μM): 1.07 ± 0.0167 µM
- Metaxalone Present Raw (human CYP1A2; metaxalone 2.5 μM): 0.527 µM and 0.5291 µM and 0.5423 µM
- Percent of Metabolic Negative Control Individual (human CYP1A2; metaxalone 2.5 μM): 79.5% and 79.8% and 81.8%
- Percent of Metabolic Negative Control Mean ± SD (human CYP1A2; metaxalone 2.5 μM): 80.4 ± 1.26%
- Metaxalone Present Adjusted Individual (human CYP1A2; metaxalone 25 μM): 16.4 μM (2×) and 17.0 μM
- Metaxalone Present Adjusted Mean ± SD (human CYP1A2; metaxalone 25 μM): 16.6 ± 0.337 µM
- Metaxalone Present Raw (human CYP1A2; metaxalone 25 μM): 8.205 µM and 8.192 µM and 8.49 µM
- Percent of Metabolic Negative Control Individual (human CYP1A2; metaxalone 25 μM): 82.8% and 82.6% and 85.6%
- Percent of Metabolic Negative Control Mean ± SD (human CYP1A2; metaxalone 25 μM): 83.7 ± 1.70%
- % Turnover Mean (CYP2A6 [1]; 0.75 μM metaxalone): 16.0%
- % inhibition of turnover Mean (CYP2A6 [1]; 0.75 μM metaxalone): 46.2%
- Mean Conc. (CYP2A6 [1]; 0.75 μM metaxalone): 0.648 µM
- % Turnover (CYP2A6 [1]; 0.75 μM metaxalone): 13.9% and 14.7% and 19.4%
- % inhibition of turnover (CYP2A6 [1]; 0.75 μM metaxalone): 53.2% and 50.6% and 34.9%
- Conc. (CYP2A6 [1]; 0.75 μM metaxalone): 0.664 µM and 0.658 µM and 0.622 µM
- % Turnover Mean (CYP2A6 [1]; 7.5 μM metaxalone): 12.1%
- % inhibition of turnover Mean (CYP2A6 [1]; 7.5 μM metaxalone): 50.8%
- Mean Conc. (CYP2A6 [1]; 7.5 μM metaxalone): 7.48 µM
- % Turnover (CYP2A6 [1]; 7.5 μM metaxalone): 8.8% and 14.5% and 13.0%
- % inhibition of turnover (CYP2A6 [1]; 7.5 μM metaxalone): 64.2% and 41.2% and 47.1%
- Conc. (CYP2A6 [1]; 7.5 μM metaxalone): 7.76 µM and 7.28 µM and 7.41 µM
- Metaxalone Present Adjusted Individual (CYP3A4; metaxalone 0.5 μM): 0.320 µM and 0.323 µM and 0.317 µM
- Metaxalone Present Adjusted Mean ± SD (CYP3A4; metaxalone 0.5 μM): 0.320 ± 0.00333 µM
- Metaxalone Present Raw (CYP3A4; metaxalone 0.5 μM): 0.1598 µM and 0.1616 µM and 0.1583 µM
- Percent of Metabolic Negative Control Individual (CYP3A4; metaxalone 0.5 μM): 101% and 102% and 99.6%
- Percent of Metabolic Negative Control Mean ± SD (CYP3A4; metaxalone 0.5 μM): 101 ± 1.05%
- Metaxalone Present Adjusted Individual (CYP3A4; metaxalone 2.5 μM): 1.71 µM and 1.66 µM and 1.67 µM
- Metaxalone Present Adjusted Mean ± SD (CYP3A4; metaxalone 2.5 μM): 1.68 ± 0.0289 µM
- Metaxalone Present Raw (CYP3A4; metaxalone 2.5 μM): 0.8573 µM and 0.8292 µM and 0.8374 µM
- Percent of Metabolic Negative Control Individual (CYP3A4; metaxalone 2.5 μM): 99.8% and 96.5% and 97.5%
- Percent of Metabolic Negative Control Mean ± SD (CYP3A4; metaxalone 2.5 μM): 98.0 ± 1.68%
- Percent of Metabolic Negative Control Individual (CYP3A4; metaxalone 25 μM): 98.1% and 97.1% and 99.3%
- Percent of Metabolic Negative Control Mean ± SD (CYP3A4; metaxalone 25 μM): 98.1 ± 1.10%
- Metaxalone Present Adjusted Individual (CYP2A6 [2]; metaxalone 0.5 μM): 0.309 µM and 0.302 µM and 0.285 µM
- Metaxalone Present Adjusted Mean ± SD (CYP2A6 [2]; metaxalone 0.5 μM): 0.299 ± 0.0124 µM
- Metaxalone Present Raw (CYP2A6 [2]; metaxalone 0.5 μM): 0.1546 µM and 0.1511 µM and 0.1425 µM
- Percent of Metabolic Negative Control Individual (CYP2A6 [2]; metaxalone 0.5 μM): 99.5% and 97.2% and 91.7%
- Percent of Metabolic Negative Control Mean ± SD (CYP2A6 [2]; metaxalone 0.5 μM): 96.1 ± 3.99%
- Metaxalone Present Adjusted Individual (CYP2A6 [2]; metaxalone 2.5 μM): 1.58 µM and 1.60 µM and 1.65 µM
- Metaxalone Present Adjusted Mean ± SD (CYP2A6 [2]; metaxalone 2.5 μM): 1.61 ± 0.0373 µM
- Metaxalone Present Raw (CYP2A6 [2]; metaxalone 2.5 μM): 0.7913 µM and 0.7979 µM and 0.8264 µM
- Percent of Metabolic Negative Control Individual (CYP2A6 [2]; metaxalone 2.5 μM): 104% and 105% and 109%
- Percent of Metabolic Negative Control Mean ± SD (CYP2A6 [2]; metaxalone 2.5 μM): 106 ± 2.46%
- Metaxalone Present Adjusted Individual (CYP2A6 [2]; metaxalone 25 μM): 15.5 μM and 15.7 μM (2×)
- Metaxalone Present Adjusted Mean ± SD (CYP2A6 [2]; metaxalone 25 μM): 15.6 ± 0.0975 µM
- Metaxalone Present Raw (CYP2A6 [2]; metaxalone 25 μM): 7.764 µM and 7.85 µM and 7.846 µM
- Percent of Metabolic Negative Control Individual (CYP2A6 [2]; metaxalone 25 μM): 101% and 102% (2×)
- Percent of Metabolic Negative Control Mean ± SD (CYP2A6 [2]; metaxalone 25 μM): 102 ± 0.636%
- observed increase of extent of absorption (AUC0-inf) with food relative to fasted treatment [3]: 115.4%
- observed increase of extent of absorption (AUC0-t) with food relative to fasted treatment [3]: 123.5%
- observed increase of peak plasma concentration (Cmax) with food relative to fasted treatment [3]: 177.5%
